Test results as given in publication PMC8868518, “Exploring Titanium(IV) Complexes as Potential Antimicrobial Compounds” (Antibiotics, 2022).
Where two headings read alike, the source gives them in different places.

Tests used:
[1] = test system: P. aeruginosa (ATCC 27853); assay: CO-ADD antibacterial assay, growth inhibition (OD600); assay type: cell-based, Pseudomonas aeruginosa; conditions: up to 32 μg/mL; for MIC P. aeruginosa: predicted or measured MIC, ≥75% growth inhibition
Procedure: (§1) Dry compounds ranging from 1–2 mg were weighed into properly labeled Eppendorf tubes and sealed with parafilm. The compounds were used as received by the CO-ADD. For the screenings, most compounds were dissolved to a stock concentration of 10 mg/mL in DMSO. K2[Ti(Citrate)3], Na3Citrate, and K2[TiO(Oxalate)2] were dissolved in warm water. […] Samples were diluted in water to a final testing concentration of 32 µg/mL while keeping the final co-solvent concentration to a maximum of 0.5%. Where applicable, compounds were serially diluted 1:2 fold eight times. Each sample concentration was prepared in 384-well plates, non-binding surface plate (NBS; Corning 3640) for each bacterial/fungal strain, tissue-culture treated (TC-treated; Corning 3712/3764), black for mammalian cell types and polypropylene 384-well (PP; Corning 3657) for hemolysis assays, all in duplicate (n = 2), and keeping the final DMSO concentration to a maximum of 0.5%. All sample preparation was conducted using liquid handling robots.
(§2) For the bacterial assays, four Gram-negative bacteria (E. coli (ATCC 25922, Manassas, VA, USA); K. pneumoniae (ATCC 700603), A. baumannii; (ATCC 19606), and P. aeruginosa (ATCC 27853) and the Gram-positive bacteria (S. aureus MRSA (ATCC 43300) were used. Each strain was cultured in cation-adjusted Mueller Hinton broth (CAMHB; Bacto Laboratories 212322, Mount Pritchard, Australia) at 37 °C overnight. A sample of each culture was then diluted 40-fold in fresh CAMHB and incubated at 37 °C for 1.5–3 h. The resultant mid-log phase cultures were diluted with CAMHB (CFU/mL measured by OD600), then added to each well of the compound-containing plates (384-well non-binding surface (NBS) plates; Corning CLS3640, Millipore Sigma, Burlington, MA, USA), giving a cell density of 5 × 10^5 CFU/mL and a total volume of 50 µL. Plates were covered and incubated at 37 °C for 18 h without shaking. Inhibition of bacterial growth was determined by measuring absorbance at 600 nm (OD600) with a Tecan M1000 Pro monochromator plate reader, using media-only as negative control and bacteria without inhibitors as a positive control. […] Colistin sulfate (Sigma C4461) and vancomycin HCl (Sigma 861987) were used as internal controls on each plate for Gram-negative and Gram-positive bacteria, respectively.

E. coli (ATCC 25922) = assay: as above; assay type: cell-based, Escherichia coli; conditions: up to 32 μg/mL; for MIC E. coli: predicted or measured MIC, ≥75% growth inhibition
Procedure: as §1, §2

[2] = test system: S. aureus MRSA (ATCC 43300); assay: as above; assay type: cell-based, Staphylococcus aureus; conditions: for MIC S. aureus (MRSA): predicted or measured MIC, lowest concentration with ≥75% growth inhibition, 0.25-32 μg/mL, 18 h; for Dmax S. aureus (MRSA), maximum % inhibition: up to 32 μg/mL
Procedure: as §1, §2

MRC-5 cells [3] = conditions: cited from earlier work
[4] = cited from earlier work
[5] = test system: A. baumannii (ATCC 19606); assay: CO-ADD antibacterial assay, growth inhibition (OD600); assay type: cell-based, Acinetobacter baumannii; conditions: up to 32 μg/mL; for MIC A. baumannii: predicted or measured MIC, ≥75% growth inhibition
Procedure: as §1, §2

[6] = test system: HEK293 ATCC CRL-1573 human embryonic kidney cells; assay: CO-ADD cytotoxicity assay (resazurin); assay type: cell-based; conditions: all concentrations examined (0.25-32 μg/mL), 20 h; CC50 could not be measured
Procedure: The compounds were used as received by the CO-ADD. For the screenings, most compounds were dissolved to a stock concentration of 10 mg/mL in DMSO. K2[Ti(Citrate)3], Na3Citrate, and K2[TiO(Oxalate)2] were dissolved in warm water. [Cu(Deferasirox)(H2O)]2 was dissolved in pyridine after its solubility was determined to be excellent in pyridine due to coordination of the solvent to the metal producing [Cu(Deferasirox)(pyridine)]2 in situ. […] Each sample concentration was prepared in 384-well plates, non-binding surface plate (NBS; Corning 3640) for each bacterial/fungal strain, tissue-culture treated (TC-treated; Corning 3712/3764), black for mammalian cell types and polypropylene 384-well (PP; […] All sample preparation was conducted using liquid handling robots. HEK293 ATCC CRL-1573 human embryonic kidney cells were counted manually in a Neubauer hemocytometer and added to compound-containing plates (384-well plates, tissue culture-treated (TC); […] Life Technologies 11995-073) with 10% FBS (GE SH30084.03).

[7] = test system: C. neoformans (ATCC 208821); assay: CO-ADD antifungal assay, growth inhibition (resazurin, OD600-570); assay type: cell-based, Cryptococcus neoformans; conditions: up to 32 μg/mL; for MIC C. neoformans: predicted or measured MIC, ≥75% growth inhibition, 36 h
Procedure: (§3) The compounds were used as received by the CO-ADD. For the screenings, most compounds were dissolved to a stock concentration of 10 mg/mL in DMSO. K2[Ti(Citrate)3], Na3Citrate, and K2[TiO(Oxalate)2] were dissolved in warm water. [Cu(Deferasirox)(H2O)]2 was dissolved in pyridine after its solubility was determined to be excellent in pyridine due to coordination of the solvent to the metal producing [Cu(Deferasirox)(pyridine)]2 in situ. […] Each sample concentration was prepared in 384-well plates, non-binding surface plate (NBS; Corning 3640) for each bacterial/fungal strain, tissue-culture treated (TC-treated; Corning 3712/3764), black for mammalian cell types and polypropylene 384-well (PP; […] All sample preparation was conducted using liquid handling robots. For the fungal assays, the fungi (C. albicans (ATCC 90028) and C. neoformans) (ATCC 208821) were used. Both fungi (yeast) strains were cultured for 3 days on Yeast Extract-Peptone Dextrose (YPD; Becton Dickinson 242720, Thermo Fisher Scientific, Waltham, MA, USA) agar at 30 °C. A yeast suspension of 1 × 10^6 to 5 × 10^6 CFU/mL (as determined by OD530) was prepared from five colonies from the agar plates, subsequently diluted with Yeast Nitrogen Base media (YNB; Becton Dickinson 233520, Thermo Fisher Scientific, Waltham, MA, USA), and added to each well of the compound-containing plates (384-well plates, NBS; Corning CLS3640) giving a final cell density of 2.5 × 10^3 CFU/mL and a total volume of 50 μL. Plates were covered and incubated at 35 °C for 36 h without shaking. […] Sigma R7017) and incubation at 35 °C for 2 h, using media-only as a negative control and fungi without inhibitors as a positive control. […] Fluconazole (Sigma F8929) was used as an internal control on each plate for both strains.

[8] = test system: K. pneumoniae (ATCC 700603); assay: CO-ADD antibacterial assay, growth inhibition (OD600); assay type: cell-based, Klebsiella pneumoniae; conditions: up to 32 μg/mL; for MIC K. pneumoniae: predicted or measured MIC, ≥75% growth inhibition
Procedure: as §1, §2

C. albicans (ATCC 90028) = assay: CO-ADD antifungal assay, growth inhibition (OD630); assay type: cell-based, Candida albicans; conditions: up to 32 μg/mL; for MIC C. albicans: predicted or measured MIC, ≥75% growth inhibition, 36 h
Procedure: as §3

[9] = Aqueous solution stability, ligand exchange lability and solubility; conditions: water / aqueous buffer
MRC-5 cells [10] = assay: MRC-5 cell viability, dose-response treatment, MTT assay; assay type: cell-based, human; conditions: pH 7.4
Procedure: A thawed stock of MRC-5 cells was washed with 1X PBS and resuspended in phenol red DMEM media (supplemented with 10% FBS and 1% of penicillin-streptomycin) and then seeded in a 100 mm × 20 mm (complete, O.D. x H) petri dish and grown in a 5% (v/v) CO2 humidified atmosphere at 37 °C. At least three passages were performed to ensure the integrity of the cells. After this point, cells were collected, thoroughly washed with 1X PBS, and then resuspended in phenol red-free DMEM (supplemented with 10% FBS, 1% Streptomycin/Penicillin, and 2.4 mM L-glutamine) at a 2.0 × 10^5 cells/mL concentration. Approximately 100 µL of the cell solution was seeded into wells of several 96-well plates to begin the MTT assay, which was performed in the 5% (v/v) CO2 humidified atmosphere at 37 °C. At least one lane of wells in each plate was supplied media without cells as a control. […] Most of the compounds were dissolved in 1X PBS buffer at pH 7.4. […] Titanocene dichloride was prepared as a fresh stock solution in DMSO and then diluted in 0.1 M NaCl (aq) instead of 1X PBS (to minimize hydrolysis induced precipitation) to the desired concentration while maintaining a constant 1% (v/v) DMSO background (0.5% DMSO after mixing with the well media). A control of cells treated with media containing 1% (v/v) DMSO was included in the study. The titanocene solutions were used within an hour of preparation in the final cell solution. […] At 3 h before a total of 72 h of incubation with the compounds, the cells were treated with 25 µL of 9 mg/mL MTT prepared in 1X PBS and sterile-filtered. Upon completion of the three hours, 50 µL of 10% (w/v) SDS (prepared in 0.1 M Tris buffer at pH 11) was added to solubilize the purple formazan product crystals and left overnight in the incubator. Control wells in the plates consisted of: (1) Untreated cells + MTT as the measure of 100% viable cell growth in the media and (2) Media with no cells + MTT as the measure of zero cells in the media. Two sets of compounds could be tested per plate. The plates were read at the wavelength of 570 nm (absorbance of the formazan product at pH 10.0) and 800 nm (background control) using a Tecan plate reader. The absorbance of all wells was compared to the absorbance of the untreated cells with the MTT set as the 100% viable cell standard and the absorbance of the zero cell control set as the 0% viable cell standard. […] Nonlinear regression in Origin 8.5 was utilized to fit the growth curves using the pharmacology dose–response equation to determine the half-maximal inhibitory concentration (IC50) and the corresponding standard deviation. All samples were tested six times.

[11] = test system: hemolytic and nonhemolytic S. aureus cultures; parameters: method as in doi:10.2298/abs141203061g; conditions: cited from earlier work
[12] = test system: total intestinal bacterial count; parameters: method as in PMID 11762532; conditions: white mice, supplied in bread; cited from earlier work

O=C1CN2CCN3CC(=O)[O][Ti]([O]1)([O]c1ccccc1C2)[O]c1ccccc1C3 [Compound 11, Ti(HBED)]
MIC P. aeruginosa [1]: >32 µg/mL
Dmax P. aeruginosa, maximum % inhibition [1]: 72.48%
MIC E. coli (E. coli (ATCC 25922)): >32 µg/mL
Dmax E. coli, maximum % inhibition (E. coli (ATCC 25922)): 48.02%
MIC S. aureus (MRSA) [2]: >32 µg/mL
Dmax S. aureus (MRSA), maximum % inhibition [2]: 61.46%
IC50 ± SD (MRC-5 cells [3]): 18.5 ± 1.9 µg/mL
IC50 (MRC-5 cells [3]; read-out: IC50 ± SD): 42 ± 4.4 µM
solution stability (in words) ([4]; pH 4): highly stable in solution
MIC A. baumannii [5]: >32 µg/mL
Dmax A. baumannii, maximum % inhibition [5]: 68.73%
antiproliferative effect against HEK293 (in words) [6]: inactive
MIC C. neoformans [7]: >32 µg/mL
Dmax C. neoformans, maximum % inhibition [7]: −18.86%
MIC K. pneumoniae [8]: >32 µg/mL
Dmax K. pneumoniae, maximum % inhibition [8]: 56.3%
MIC C. albicans (C. albicans (ATCC 90028)): >32 µg/mL
Dmax C. albicans, maximum % inhibition (C. albicans (ATCC 90028)): 10.43%

O=C1[O][Ti-2]23([O]C(=O)c4ccccc4[O]2)([O]C(=O)c2ccccc2[O]3)[O]c2ccccc21.[Na+].[Na+] [Compound 12, Na2[Ti(Salicylate)3]]
solubility (in words) [9]: limited solubility in water
MIC P. aeruginosa [1]: >32 µg/mL
Dmax P. aeruginosa, maximum % inhibition [1]: 9.57%
MIC E. coli (E. coli (ATCC 25922)): >32 µg/mL
Dmax E. coli, maximum % inhibition (E. coli (ATCC 25922)): 2.6%
MIC S. aureus (MRSA) [2]: >32 µg/mL
Dmax S. aureus (MRSA), maximum % inhibition [2]: 3.66%
IC50 ± SD (µg/mL), relative IC50 (MRC-5 cells [10]): 5.14 ± 0.92 µg/mL
IC50 (MRC-5 cells [10]; read-out: IC50 ± SD (µM), relative IC50): 8.6 ± 1.54 µM
MIC A. baumannii [5]: >32 µg/mL
Dmax A. baumannii, maximum % inhibition [5]: 9.4%
MIC C. neoformans [7]: >32 µg/mL
Dmax C. neoformans, maximum % inhibition [7]: −5.2%
MIC K. pneumoniae [8]: >32 µg/mL
Dmax K. pneumoniae, maximum % inhibition [8]: 12.46%
MIC C. albicans (C. albicans (ATCC 90028)): >32 µg/mL
Dmax C. albicans, maximum % inhibition (C. albicans (ATCC 90028)): 49.3%

O=C([O-])CC1(CC(=O)[O-])[O][Ti-2]23([O]C1=O)([O]C(=O)C(CC(=O)[O-])(CC(=O)[O-])[O]2)[O]C(=O)C(CC(=O)[O-])(CC(=O)[O-])[O]3 [Ti(citrate)3^8−]
ligand exchange lability (in words) [4]: ligand exchange labile
biofilm formation (in words) ([11]; all concentrations tested (0.5 to 50 mM)): significantly activated biofilm formation
concentration with significant inhibition of growth rate ([11]; only the early phase of the bacterial growth cycle): 50 mM

O=C(O)C(=O)O.[O]=[Ti] [titanyl oxalate]
decrease in the total intestinal bacterial count [12]: 50%
